Values quoted from earlier work, collected in patent US11701338B2, “Use of gTso thal in manufacturing medicament for promotion of MS-275 to cross blood-brain barrier” (Northwest Institute of Plateau Biology, Chinese Academy of …, priority 2020, dated 2023).

Details: after oral or intravenous administration

Nc1ccccc1NC(=O)c1ccc(CNC(=O)OCc2cccnc2)cc1 [MS-275]
share of the dosage of MS-275 that crosses the BBB into the brain: around 15%
